From patent US10654807B2, “Toll-like receptor 8 agonists” (The University Of Kansas, priority 2013, dated 2020)
“Also recorded” adds a separate entry of the source.

Key:
whole human blood = experiment: proinflammatory cytokine induction in human blood; type: cell-based; conditions: FIGS. 6A-6D, Compound 2 as reference
human ex vivo blood = conditions: transcriptomal profiling
[1] = system: human natural killer cells; experiment: CD69 upregulation by flow cytometry in whole human blood; type: cell-based; conditions: 16.5 h, FIG. 8
Experimental: Flow-Cytometric Immunostimulation Experiments:
CD69 upregulation was determined by flow cytometry. Briefly, heparin-anticoagulated whole blood samples were obtained by venipuncture from healthy human volunteers with informed consent and as per guidelines approved by the University of Kansas Human Subjects Experimentation Committee. […] Negative (endotoxin free water) controls were included in each experiment. Following incubation, 200 μL aliquots of anticoagulated whole blood were stained with 20 µL of fluorochrome-conjugated antibodies at 37° C. in the dark for 30 min. For triple color flow cytometry experiments, CD3-PE, CD56-APC, CD69-PE-Cy7 were used to analyze CD69 activation of each of the main peripheral blood lymphocyte populations: natural killer lymphocytes (NK cells: CD3^−CD56^+), cytokine-induced killer phenotype (CIK cells: CD3^+CD56^+), nominal B lymphocytes (CD3^−CD56^−), and nominal T lymphocytes (CD3^+CD56^−). Following staining, erythrocytes were lysed and leukocytes fixed in one step by mixing 200 μL of the samples in 4 mL pre-warmed Whole Blood Lyse/Fix Buffer (Becton-Dickinson Biosciences, San Jose, Calif.). After washing the cells twice at 200 g for 8 minutes in saline, the cells were transferred to a 96-well plate. […]

TLR7/TLR8 = conditions: background statement; cited from earlier work

Compound | induction of TNF-α, IL-1β, IL-6 and IL-8 (whole human blood) | IFN-α transcription (human ex vivo blood) | induction of proinflammatory cytokine transcripts (human ex vivo blood) | CD69 expression on natural killer lymphocytes [1] | TLR7/TLR8 agonism profile described (TLR7/TLR8)
CCCCc1cc2c(o1)c(N)nc1ccccc12 [Compound A8d, 2-butylfuro[2,3-c]quinolin-4-amine] | induce TNF-α, IL-β, IL-6 and IL-8 in a dose-dependent manner, albeit with a lower potency than Compound 2 | induced only by Compound 2 | strong induction of proinflammatory cytokine transcripts (including IL-12 and IL-18) | absence of natural killer lymphocyte activation; also recorded: absence of CD69 upregulation | 
CCCN(CCC)C(=O)C1=Cc2ccc(-c3ccc(C(=O)N4CCCC4)cc3)cc2N=C(N)C1 [VTX-2337] |  |  |  |  | mixed TLR7/TLR8-agonism
